Assay [1] deals with A. citrulli M6. The experiment in a line: In planta assay, A. citrulli-melon pathosystem. As to conditions: 200 ppm @[Cu], 10 ppm LAE; 5 days after inoculation. The assay is classed as in vivo, melon (cv. AN-305). The text has this:
Assessment of the ability of the LAE @Cu composites to reduce disease: To assess the potential of LAE@Cu composites for management of bacterial plant diseases, we carried out experiments using the A. citrulli-melon pathosystem. In these experiments, the foliage of three-week-old plants of melon (cv. AN-305; Origene Seeds) were sprayed with LAE1.0@Cu composites at a concentration of 200 ppm. Additional treatments included spraying with 200 ppm of @Cu, 10 ppm of LAE (corresponding to the concentration of LAE in 200 ppm LAE×1.0@Cu) and the commercial bactericide Kocide, which was applied at the recommended concentration for management of the disease (2 mg/ml). As controls, foliage were sprayed with double distilled water (DDW). […] Disease severity of inoculated leaves was determined 5 days after inoculation, using the following scale: 0, no symptoms; 1, few minor lesions; 2, few small necrotic spots; 3, increased necrotic spots in less than 25% of the leaf area; 4, increased necrotic spots in 25 to 50% of the leaf area; and 5, increased necrotic spots in more than 50% of the leaf area and dead leaf. The data were statistically analyzed by one-way analysis of variance (ANOVA) and Tukey's honest significant difference (HSD) test.
In-planta assay: Melon plants (cv. AN-305; Origene Seeds) were grown in a growth chamber at 28° C. […] Disease severity was determined 5 days after inoculation.

Assay [2] deals with A. citrulli M6. The experiment in a line: Bactericidal (killing) activity of LAE@Cu composites in vitro. The assay is classed as cell-based, Acidovorax citrulli. To be noted: LAE at 1.25 ppm, 30 min. On the procedure: Assessment of bactericidal activity of LAE @Cu composites in vitro: Bactericidal activity of LAE@Cu composites was tested by adding the composites to 50 ml-PBS suspensions containing ˜10^7 colony forming units (CFU)/ml of A. citrulli M6. The suspensions were incubated at 30° C. with shaking for 30 min. Then, the concentrations of viable bacteria were determined following plating of serial dilutions on nutrient agar (NA, Difco) plates.
Bacterial killing assay: The bactericidal (killing) activity of LAE@[Cu] composites at a concentration of 25 ppm (1.25 mg in 50 ml), were tested in PBS containing ˜107 (CFU)/mL. The suspensions were incubated at 30° C. with shaking for 30 min. Then, the viable bacteria were determined following plating of serial dilutions on NA (nutrient agar) plates. Controls included @[Cu], the composite-like compound without LAE, and the commercial bactericide, Kocide®, at the same concentrations.

As for `CCCCCCCCCCCC(=O)N[C@@H](CCCN=C(N)N)C(=O)OCC` [LAE, Lauroyl arginate ethyl ester], the “reduction of disease severity as compared with non-treated controls” value in the assay with A. citrulli M6 [1] was 29%. In the assay with A. citrulli M6 [2], the “reduction of the A. citrulli population” value was 2 orders of magnitude.

Source of the values: patent US20230256102A1, “COMPOSITES AND USES THEREOF” (YISSUM RESEARCH DEVELOPMENT COMPANY OF THE HEBREW …, priority 2019, published 2023).
